Tests used:
hTRPML2 = molecular target: T1, hTRPML2 (Homo sapiens, UniProt Q8IZK6); test: Whole-cell patch-clamp, tetracycline-inducible HEK293 hTRPML2; type: cell-based; details: 30 µM ML-SA1, pH 7.4; read-out: TRPML2 IC50, whole-cell patch-clamp
T1 construct: host or cells: HEK293, FLP-in-Tet-On, tetracycline-induced
T1 sequence (Q8IZK6 1-566): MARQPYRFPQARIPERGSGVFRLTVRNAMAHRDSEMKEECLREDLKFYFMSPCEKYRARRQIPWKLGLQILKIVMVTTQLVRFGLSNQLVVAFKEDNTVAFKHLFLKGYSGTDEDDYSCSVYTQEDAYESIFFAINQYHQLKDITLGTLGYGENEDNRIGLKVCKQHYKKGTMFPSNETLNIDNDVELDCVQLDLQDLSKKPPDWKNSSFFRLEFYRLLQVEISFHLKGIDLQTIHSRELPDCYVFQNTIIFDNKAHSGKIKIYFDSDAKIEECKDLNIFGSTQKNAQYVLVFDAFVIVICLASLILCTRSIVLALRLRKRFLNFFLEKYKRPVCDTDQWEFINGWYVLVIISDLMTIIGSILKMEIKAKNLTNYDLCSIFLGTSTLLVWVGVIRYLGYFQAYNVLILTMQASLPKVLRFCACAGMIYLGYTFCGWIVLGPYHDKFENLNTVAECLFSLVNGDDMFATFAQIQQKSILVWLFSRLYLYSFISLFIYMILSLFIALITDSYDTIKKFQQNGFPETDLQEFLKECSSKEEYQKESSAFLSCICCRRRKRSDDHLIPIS
Experimental: Experiments were performed as described previously[20],[42]. In brief, cells were cultured on coverslips (Fisherbrand, Fisher Scientific) in complete DMEM medium with 10% FBS (Thermo Fisher). HEK293 cells expressing the desired channel protein were patch-clamped after overnight induction with tetracycline (1 µg/mL). […] The low pH bath solution contained (mM) 150 Na-Gluconate, 5 KCl, 2 CaCl2, 1 MgCl2, 10 glucose, 10 HEPES and 10 MES (pH 4.6). Whole‐cell currents were recorded using a Multiclamp 700B amplifier (Molecular Devices) with low‐pass filtering at 3 kHz. […] Current recording was done with WinWCP5.2.7 (University of Strathclyde, UK) software, and analysis was done with the help of a customized Igor pro program (WaveMetrics).

TRPML1 = molecular target: T2, TRPML1 (Homo sapiens, UniProt Q9GZU1); test: Endolysosomal patch-clamp, endo-lysosomes from MDA-MB-231 cells; type: cell-based; details: activation with ML-SA1
T2 construct: vacuolin-enlarged endo-lysosomes isolated from WT and KO1 MDA-MB-231 cells; endogenous in cells; host or cells: MDA-MB-231
T2 sequence (Q9GZU1 whole entry): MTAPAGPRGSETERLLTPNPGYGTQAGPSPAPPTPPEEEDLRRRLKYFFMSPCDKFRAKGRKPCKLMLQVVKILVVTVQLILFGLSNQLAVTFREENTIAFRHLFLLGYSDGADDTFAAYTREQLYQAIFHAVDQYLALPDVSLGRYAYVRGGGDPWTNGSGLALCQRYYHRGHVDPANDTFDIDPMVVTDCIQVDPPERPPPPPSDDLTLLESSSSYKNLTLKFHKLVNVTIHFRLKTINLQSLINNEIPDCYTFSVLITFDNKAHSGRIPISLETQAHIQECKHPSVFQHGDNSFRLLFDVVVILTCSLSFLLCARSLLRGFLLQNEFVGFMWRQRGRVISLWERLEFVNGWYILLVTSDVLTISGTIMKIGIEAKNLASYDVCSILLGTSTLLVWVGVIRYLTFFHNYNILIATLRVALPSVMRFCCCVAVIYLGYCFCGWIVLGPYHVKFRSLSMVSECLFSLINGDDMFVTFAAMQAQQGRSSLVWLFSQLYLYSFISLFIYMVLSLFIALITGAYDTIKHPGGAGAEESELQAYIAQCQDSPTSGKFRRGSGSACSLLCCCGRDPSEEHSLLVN
Experimental: For whole-LE/LY manual patch-clamp recordings, cells were treated with 1 μM vacuolin-1 (> 2 h) at 37 °C and 5% CO2 and experiments performed as described previously[19],[25]. Compound was washed out before patch-clamp experimentation. Currents were recorded using an EPC-10 patch-clamp amplifier (HEKA, Lambrecht, Germany) and PatchMaster acquisition software (https://www.heka.com/). Data were digitized at 40 kHz and filtered at 2.8 kHz. Fast and slow capacitive transients were cancelled by the compensation circuit of the EPC-10 amplifier. All recordings were obtained at room temperature and were analyzed using PatchMaster acquisition software (https://www.heka.com/) and OriginPro 6.1 (https://www.originlab.com/). […] For all experiments, salt-agar bridges were used to connect the reference Ag–AgCl wire to the bath solution to minimize voltage offsets. Liquid junction potential was corrected. For the application of the small molecule inhibitors/flavonoids, cytoplasmic solution was completely exchanged by cytoplasmic solution containing compound. The current amplitudes at − 100 mV were extracted from individual ramp current recordings. Unless otherwise stated, cytoplasmic solution contained 140 mM K-MSA, 5 mM KOH, 4 mM NaCl, 0.39 mM CaCl2, 1 mM EGTA and 10 mM HEPES (pH was adjusted with KOH to 7.2). […]

In the case of `COc1ccc2c(c1)CC[C@@H]1[C@@H]2CC[C@]2(C)[C@@H](O)CC[C@@H]12` [EDME, 17β-estradiol methyl ether], the IC50 (hTRPML2) is reported as 3.8 µM and the “inhibition of TRPML1 activation in MDA-MB-231 endo-lysosomes” value (TRPML1) is reported as “inhibits TRPML1 activation”.
